From US4087418A, “Hexapeptides and methods for their production” (Parke, Davis & Company, priority 1976, dated 1978)

Tested on: LRF (luteinizing hormone release factor) induced luteinizing hormone (LH) release
Experiment: In vitro LRF antagonist test in rat anterior pituitary cell cultures
Format: cell-based
Conditions: LRF alone, Molar Conc. 2.5×10^-10 (stimulation control)
Description: Hexapeptides of this invention were screened for LRF antagonist activity in vitro using rat anterior pituitary cell cultures as described by Vale et. al. [Endocrinology, 91, 562 (1972)]. The inhibition of LRF (luteinizing hormone release factor) induced luteinizing hormone (LH) release into the culture medium is the endpoint in this in vitro bioassay.

LRF Control: luteinizing hormone releasing factor, also referred to as luteinizing hormone releasing hormone, LH-RH; stimulates secretion of luteinizing hormone (QHWSYGLRPG; Gonadoliberin-1; UniProt P01148 24-33, looked up)
LH Value: 38.98 ng/mL
